Values joined by “and” are separate entries in the source; they are usually repeats but may differ in a detail not shown here. Identical values can stand only once.
What was measured:
[1] = test system: P‐gp; conditions: in vivo (mice); calculated from F a F g in WT, Bcrp(−/−) and Mdr1a/1b(−/−) mice (Eq. 12)
[2] = Pharmacokinetics after iv and oral administration, P‐S difference method, Bcrp(−/−) mice; type: in vivo
Protocol: (§1) Male Mdr1a/1b(−/−) and Bcrp(−/−) mice, and WT mice of the same genetic background (FVB) were obtained from Taconic Farms (Germantown, NY, USA). […] Food and water were available ad libitum. All experiments were carried out in accordance with the principles and procedures outlined in the National Institutes of Health Guide for the Care and Use of Laboratory.
(§2) All the mice were fasted overnight with free access to tap water. In the intravenous administration studies, model compounds were administered via the tail vein at doses of 1 mg/kg (n = 3). Following administration, blood samples were collected from the abdominal vein of the anesthetized mice at 0.083, 0.17, 0.5, 1, 2, 4, and 8 hours. […] Following administration, blood samples were taken from the portal and abdominal veins of the anesthetized mice at 0.083, 0.17, 0.5, 1, 2, 4, and 8 hours. The plasma samples were separated by centrifugation at 14 000g for 10 minutes at 4°C and stored at −30°C until analysis.
(§3) After organic layer was evaporated at 60°C, the resultant residues were dissolved in a mobile phase. For the determination of topotecan and sulfasalazine, plasma samples were mixed with acetonitrile, centrifuged at 750 g for 10 minutes at 4°C, and the supernatants were collected. After the evaporation of the supernatants, the residues were dissolved in a mobile phase, and acidified with phosphoric acid for topotecan. All drugs were analyzed by HPLC system (Shimadzu LC‐10AS pump, Shimadzu SIL‐10A autosampler) equipped with a reverse‐phase column (COSMOSIL 5C18‐AR‐II, 3.5‐μm […], 4.6 × 150 mm).
(§4) Elimination rate constant (k e) was determined by the least squares regression analysis of plasma concentration vs time curve. Elimination half‐life (t 1/2) was calculated using Eq.1:(1) t1/2=ln2/ke
(§5) Area under plasma concentration‐time curve (AUC) and area under the first moment curve (AUMC) from time 0 to infinity were calculated by trapezoidal rule.
(§6) Absorption rate constant (k a) after oral administration was calculated by the nonlinear least squares fitting with program MULTI.12
(§7) BA was calculated by Eq.5:(7) BA=AUCoral/AUCiv×Doseiv/Doseoral×100 where AUCoral is AUC after oral administration. Doseiv and Doseoral are administered dose in the intravenous and oral administration study, respectively.
(§8) Hepatic availability (F h) was calculated by Eq.6:(8) Fh=F/Fa×Fg

[3] = Pharmacokinetics after iv and oral administration, P‐S difference method, wild‐type mice; type: in vivo
Protocol: as §1, §2, §3, §4, §5, §6, §7, §8

[4] = Pharmacokinetics after iv and oral administration, P‐S difference method, Mdr1a/1b(−/−) mice; type: in vivo
Protocol: as §1, §2, §3, §4, §5, §6, §7, §8

[5] = test system: P‐gp; conditions: Caco‐2 permeability study; unpublished data; ref Fujita et al, manuscript in preparation; cited from earlier work
[6] = Blood/plasma concentration ratio (R b) in fresh whole blood; type: in vitro ADME, FVB mice; conditions: fresh whole blood, FVB mouse whole blood, 37°C
Protocol: Similarly, the model compounds were added to plasma, and reference blood samples were obtained according to the same procedure. These concentrations of drugs in each sample were analyzed using HPLC (C B and C P, respectively). R b value was calculated by dividing C B by C P.

[7] = test system: BCRP; conditions: Caco‐2 permeability study; ref (10); Kawahara et al, manuscript in revision; cited from earlier work
[8] = test system: BCRP
[9] = Bcrp(−/−) mice, p.o. (ciprofloxacin 1, nitrofurantoin 2, topotecan 1, sulfasalazine 5 mg/kg)
[10] = wild‐type mice, p.o. (ciprofloxacin 1, nitrofurantoin 2, topotecan 1, sulfasalazine 5 mg/kg)
[11] = Mdr1a/1b(−/−) mice, p.o. (ciprofloxacin 1, nitrofurantoin 2, topotecan 1, sulfasalazine 5 mg/kg)
[12] = male, Mdr1a/1b(−/−) (FVB background), mouse, systemic plasma (abdominal vein), po

In the case of `O=C1CN(/N=C/c2ccc([N+](=O)[O-])o2)C(=O)N1` [nitrofurantoin, Nitrofurantoin], the “R P‐gp (rate of P‐gp contribution)” value [1] is reported as 0.13, the F h [2, 9] is reported as 90.0% and the k a [2, 9] is reported as 6.9 h⁻¹ and 6.89 h⁻¹. For the same compound, the BA ([2]; Bcrp(−/−) mice, p.o. (ciprofloxacin 1, nitrofurantoin 2, topotecan 1, sulfasalazine 5 mg/kg) vs iv 1 mg/kg) was 69.4%, the “F a F g” value ([2]; Bcrp(−/−) mice, p.o. (ciprofloxacin 1, nitrofurantoin 2, topotecan 1, sulfasalazine 5 mg/kg), P‐S difference method) was 77.1% and the “AUC 0→∞ (AUCpv)” value ([2]; Bcrp(−/−) mice, p.o. (ciprofloxacin 1, nitrofurantoin 2, topotecan 1, sulfasalazine 5 mg/kg), portal vein (pv) plasma) was 3.41 µM·h. The “AUC 0→∞ (AUCsys)” value ([2]; Bcrp(−/−) mice, p.o. (ciprofloxacin 1, nitrofurantoin 2, topotecan 1, sulfasalazine 5 mg/kg), systemic (sys) plasma) was 2.56 µM·h, the “k a, bcrp” value ([2]; Table 5 summary, Bcrp(−/−) mice, oral administration) was 6.89 and the “(F a F g)bcrp” value ([2]; as fraction, Bcrp(−/−) mice, oral administration) was 0.77. For the same compound, the half-life ([2]; male, Bcrp(−/−) (FVB background), mouse, plasma, iv, 1 mg/kg, Bcrp(−/−) mice, iv 1 mg/kg) was 84.6 min, the Tmax ([2]; male, Bcrp(−/−) (FVB background), mouse, portal vein plasma, po) was 10.2 min and the Tmax ([2]; male, Bcrp(−/−) (FVB background), mouse, systemic plasma (abdominal vein), po) was 10.2 min. For the same compound, the AUC(0-inf) ([2]; male, FVB Bcrp(−/−), mouse, plasma (systemic, abdominal vein), iv, 1 mg/kg, Bcrp(−/−) mice, iv 1 mg/kg, read-out: AUC 0→∞) was 1.84 µM·h, the clearance ([2]; male, FVB Bcrp(−/−), mouse, plasma (systemic, abdominal vein), Bcrp(−/−) mice, iv 1 mg/kg, read-out: CL tot (converted)) was 38 mL/min/kg and the Vd ([2]; male, FVB Bcrp(−/−), mouse, plasma (systemic, abdominal vein), Bcrp(−/−) mice, iv 1 mg/kg, read-out: Vdss) was 1.45 L/kg. The AUC(0-inf) ([2]; male, FVB Bcrp(−/−), mouse, portal vein plasma, po, Bcrp(−/−) mice, p.o. (ciprofloxacin 1, nitrofurantoin 2, topotecan 1, sulfasalazine 5 mg/kg), portal vein (pv) plasma, read-out: AUC 0→∞ (AUCpv)) was 3.41 µM·h, the half-life ([2]; male, FVB Bcrp(−/−), mouse, systemic plasma (abdominal vein), po, Bcrp(−/−) mice, p.o. (ciprofloxacin 1, nitrofurantoin 2, topotecan 1, sulfasalazine 5 mg/kg), systemic (sys) plasma) was 75 min and the AUC(0-inf) ([2]; male, FVB Bcrp(−/−), mouse, systemic plasma (abdominal vein), po, Bcrp(−/−) mice, p.o. (ciprofloxacin 1, nitrofurantoin 2, topotecan 1, sulfasalazine 5 mg/kg), systemic (sys) plasma, read-out: AUC 0→∞ (AUCsys)) was 2.56 µM·h. The “AUC pv and AUC sys after oral administration, Bcrp(−/−) mice vs WT mice” value ([2]; oral administration) was “approximately 1.5 fold”, the “k a, wt” value ([3]; Table 5 summary, WT mice, oral administration) was 5.80 and the “(F a F g) wt” value ([3]; as fraction, WT mice, oral administration) was 0.64. For the same compound, the clearance ([3]; male, FVB (wild-type), mouse, plasma (systemic, abdominal vein), wild‐type mice, iv 1 mg/kg, read-out: CL tot (converted)) was 38 mL/min/kg, the Vd ([3]; male, FVB (wild-type), mouse, plasma (systemic, abdominal vein), wild‐type mice, iv 1 mg/kg, read-out: Vdss) was 1.94 L/kg and the half-life ([3]; male, FVB (wild-type), mouse, plasma, iv, 1 mg/kg, wild‐type mice, iv 1 mg/kg) was 172 min. For the same compound, the AUC(0-inf) ([3]; male, FVB (wild-type), mouse, plasma, iv, 1 mg/kg, wild‐type mice, iv 1 mg/kg, read-out: AUC 0→∞) was 1.84 µM·h, the Tmax ([3]; male, FVB (wild-type), mouse, portal vein plasma, po) was 10.2 min and the AUC(0-inf) ([3]; male, FVB (wild-type), mouse, portal vein plasma, po, wild‐type mice, p.o. (ciprofloxacin 1, nitrofurantoin 2, topotecan 1, sulfasalazine 5 mg/kg), portal vein (pv) plasma, read-out: AUC 0→∞ (AUCpv)) was 2.54 µM·h. For the same compound, the Tmax ([3]; male, FVB (wild-type), mouse, systemic plasma (abdominal vein), po) was 10.2 min, the half-life ([3]; male, FVB (wild-type), mouse, systemic plasma (abdominal vein), po, wild‐type mice, p.o. (ciprofloxacin 1, nitrofurantoin 2, topotecan 1, sulfasalazine 5 mg/kg), systemic (sys) plasma) was 55.8 min and the AUC(0-inf) ([3]; male, FVB (wild-type), mouse, systemic plasma (abdominal vein), po, wild‐type mice, p.o. (ciprofloxacin 1, nitrofurantoin 2, topotecan 1, sulfasalazine 5 mg/kg), systemic (sys) plasma, read-out: AUC 0→∞ (AUCsys)) was 1.83 µM·h. For the same compound, the F h [3, 10] was 78.3%, the k a [3, 10] was 5.8 h⁻¹ and 5.80 h⁻¹ and the BA ([3]; wild‐type mice, p.o. (ciprofloxacin 1, nitrofurantoin 2, topotecan 1, sulfasalazine 5 mg/kg) vs iv 1 mg/kg) was 49.9%. The “F a F g” value ([3]; wild‐type mice, p.o. (ciprofloxacin 1, nitrofurantoin 2, topotecan 1, sulfasalazine 5 mg/kg), P‐S difference method) was 63.7%, the “AUC 0→∞ (AUCpv)” value ([3]; wild‐type mice, p.o. (ciprofloxacin 1, nitrofurantoin 2, topotecan 1, sulfasalazine 5 mg/kg), portal vein (pv) plasma) was 2.55 µM·h and the “AUC 0→∞ (AUCsys)” value ([3]; wild‐type mice, p.o. (ciprofloxacin 1, nitrofurantoin 2, topotecan 1, sulfasalazine 5 mg/kg), systemic (sys) plasma) was 1.84 µM·h. For the same compound, the F h [4, 11] was 79.9%, the k a [4, 11] was 7.2 h⁻¹ and 7.20 h⁻¹ and the BA ([4]; Mdr1a/1b(−/−) mice, p.o. (ciprofloxacin 1, nitrofurantoin 2, topotecan 1, sulfasalazine 5 mg/kg) vs iv 1 mg/kg) was 60.0%. The “F a F g” value ([4]; Mdr1a/1b(−/−) mice, p.o. (ciprofloxacin 1, nitrofurantoin 2, topotecan 1, sulfasalazine 5 mg/kg), P‐S difference method) was 75.2%, the “AUC 0→∞ (AUCpv)” value ([4]; Mdr1a/1b(−/−) mice, p.o. (ciprofloxacin 1, nitrofurantoin 2, topotecan 1, sulfasalazine 5 mg/kg), portal vein (pv) plasma) was 3.18 µM·h and the “AUC 0→∞ (AUCsys)” value ([4]; Mdr1a/1b(−/−) mice, p.o. (ciprofloxacin 1, nitrofurantoin 2, topotecan 1, sulfasalazine 5 mg/kg), systemic (sys) plasma) was 2.35 µM·h. The “k a, P‐gp” value ([4]; Table 5 summary, Mdr1a/1b(−/−) mice, oral administration) was 7.20, the “(F a F g)P‐gp” value ([4]; as fraction, Mdr1a/1b(−/−) mice, oral administration) was 0.75 and the clearance ([4]; male, FVB Mdr1a/1b(−/−), mouse, plasma (systemic, abdominal vein), Mdr1a/1b(−/−) mice, iv 1 mg/kg, read-out: CL tot (converted)) was 35.8 mL/min/kg. It also gave a Vd ([4]; male, FVB Mdr1a/1b(−/−), mouse, plasma (systemic, abdominal vein), Mdr1a/1b(−/−) mice, iv 1 mg/kg, read-out: Vdss) of 1.36 L/kg, an AUC(0-inf) ([4]; male, FVB Mdr1a/1b(−/−), mouse, portal vein plasma, po, Mdr1a/1b(−/−) mice, p.o. (ciprofloxacin 1, nitrofurantoin 2, topotecan 1, sulfasalazine 5 mg/kg), portal vein (pv) plasma, read-out: AUC 0→∞ (AUCpv)) of 3.18 µM·h and an AUC(0-inf) ([4]; male, FVB Mdr1a/1b(−/−), mouse, systemic plasma (abdominal vein), po, Mdr1a/1b(−/−) mice, p.o. (ciprofloxacin 1, nitrofurantoin 2, topotecan 1, sulfasalazine 5 mg/kg), systemic (sys) plasma, read-out: AUC 0→∞ (AUCsys)) of 2.35 µM·h. For the same compound, the AUC(0-inf) ([4]; male, Mdr1a/1b(−/−) (FVB background), mouse, plasma, iv, 1 mg/kg, Mdr1a/1b(−/−) mice, iv 1 mg/kg, read-out: AUC 0→∞) was 1.95 µM·h, the half-life ([4]; male, Mdr1a/1b(−/−) (FVB background), mouse, plasma, Mdr1a/1b(−/−) mice, iv 1 mg/kg) was 70.2 min and the Tmax ([4]; male, Mdr1a/1b(−/−) (FVB background), mouse, portal vein plasma, po) was 10.2 min. For the same compound, the Tmax [4, 12] was 10.2 min, the half-life [4, 12] was 73.2 min and the “AUC pv and AUC sys after oral administration, Mdr1a/1b(−/−) mice vs WT mice” value ([4]; oral administration) was “approximately 1.5 fold”. The “AQp‐gp in vitro (Caco‐2)” value [5] was 0.09, the blood plasma ratio at 15 min, 1 µg/mL [6] was 1.18 ± 0.1 and the “AQbcrp in vitro (Caco‐2)” value [7] was 0.37. For the same compound, the “AQ bcrp (in vivo)” value ([8]; calculated from k a in WT, Bcrp(−/−) and Mdr1a/1b(−/−) mice (Eq. 9)) was 0.13 and the “R bcrp (rate of BCRP contribution)” value ([8]; in vivo (mice), calculated from F a F g in WT, Bcrp(−/−) and Mdr1a/1b(−/−) mice (Eq. 11)) was 0.15.

Source: PMC6968775, “Assessment of contribution of BCRP to intestinal absorption of various drugs using portal‐systemic blood concentration difference model in mice” (Pharmacology Research & Perspectives, 2020)
